Here are results for 9 molecules from patent US20240294531A1, “COVALENT HETEROCYCLES AND USES THEREOF” (Kumquat Biosciences Inc., priority 2022, published 2024).

Molecules are shown by their SMILES.

Assay [1] addresses BTK wildtype protein (Homo sapiens (Human), UniProt Q06187). The assay is described as follows: BTK wildtype HTRF displacement assay. The assay is classed as binding. The settings on record: 1-hour incubation; read-out: BTK (wt) IC50. On the procedure:
(§1) The ability of a compound to bind BTK wildtype or BTK C481S proteins was measured using an HTRF displacement assay. The assay measures the ability of a compound to displace a tracer ligand bound to the active site of BTK wildtype or BTK C481 S proteins.
(§2) Test compounds were prepared as 10 mM stock solutions in DMSO (Fisher cat #BP231-100). Compounds to be assayed were dispensed using an Echo 650 acoustic dispenser (Beckman Coulter) on a 384 well plate in 6 doses applying four-fold dilutions from the highest concentration of 5 μM. N-terminal GST-tagged recombinant full-length BTK wildtype protein and BTK C481 S protein 2-659 were purchased from Carna Biosciences, Inc (Kobe, Japan). BTK wildtype or BTK C481S protein was separately incubated with compound in assay buffer containing kinase tracer 239 (Thermo Fisher) and Mab anti GST-Th (PerkinElmer). After a 1-hour incubation at room temperature, the HTRF signal was measured using SPARK plate reader (Tecan) using the TR fluorescence mode. The HTRF ratio is calculated for DMSO, no protein control and compound samples using the following equation: HTRF ratio=Emmision665/Emmision620×10^4. The signal for the no protein control samples was used to subtract background noise from the DMSO and compound samples. Background subtracted HTRF ratios are used to calculate the percent inhibition, where DMSO controls are set to 0 percent inhibition. The percent inhibition is plotted as a function of compound concentration and IC50 values were calculated from a four-parameter logistic fit in Prism v9.4 (GraphPad), where the bottom and top are constrained to 0 and 100, respectively.
Background: TR-FRET usually uses a lanthanide donor and a delayed reading to cut background.

In assay [2] the target is BTK C481S protein (Homo sapiens (Human), UniProt Q06187, C481S). Description: BTK C481S HTRF displacement assay. Format: binding. To be noted: 1-hour incubation. Here is the method: as §1, §2
Chain of BTK C481S protein (Q06187 2-659 C481S): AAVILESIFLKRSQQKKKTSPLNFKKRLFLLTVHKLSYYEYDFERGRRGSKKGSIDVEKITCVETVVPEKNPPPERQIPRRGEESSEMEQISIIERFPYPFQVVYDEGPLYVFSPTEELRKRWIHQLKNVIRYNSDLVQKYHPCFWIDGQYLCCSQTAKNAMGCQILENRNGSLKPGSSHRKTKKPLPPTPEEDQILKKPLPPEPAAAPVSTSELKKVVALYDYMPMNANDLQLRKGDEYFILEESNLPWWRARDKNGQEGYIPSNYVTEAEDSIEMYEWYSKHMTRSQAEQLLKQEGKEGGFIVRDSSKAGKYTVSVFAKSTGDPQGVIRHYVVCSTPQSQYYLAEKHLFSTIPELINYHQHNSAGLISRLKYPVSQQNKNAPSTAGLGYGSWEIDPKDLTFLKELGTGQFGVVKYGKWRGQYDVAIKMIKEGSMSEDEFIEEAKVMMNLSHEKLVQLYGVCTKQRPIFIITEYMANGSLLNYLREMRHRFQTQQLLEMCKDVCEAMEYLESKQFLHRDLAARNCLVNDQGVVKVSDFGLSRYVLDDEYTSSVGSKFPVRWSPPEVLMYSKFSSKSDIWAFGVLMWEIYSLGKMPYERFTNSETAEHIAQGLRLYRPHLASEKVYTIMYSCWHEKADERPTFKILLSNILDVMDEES
The same assay was used to measure the activity of selected compounds of the formula TBM-L-hydrogen. Using the IC50 value observed for a given reversible test compound, the KI of the test compound can be assessed using the formula KI=IC50/(1+([Tracer]/Kd)), wherein the tracer concentration in the assay [Tracer] is 50 nM and the tracer Kd for BTK C481S is 54 nM.

Chain of BTK wildtype protein (Q06187 2-659): as the sequence (Q06187 2-659 C481S) above, with S480C counted along it

Turning to `COc1ccc(F)cc1C(=O)NCc1ccc(-c2nn([C@H]3CCCC[C@@H](N(C)C(=O)n4cncn4)C3)c(N)c2C(N)=O)cc1` [Compound 222, N-((1R,3S)-3-(5-amino-4-carbamoyl-3-(4-((5-fluoro-2-methoxybenzamido)methyl)phenyl)-1H-pyrazol-1-yl)cycloheptyl)-N-methyl-1H-1,2,4-triazole-1-carboxamide], the IC50 in assay [1] and in assay [2] was at most 1000 nM each time.
On to `NC(=O)c1c(-c2ccc(Oc3ccccc3)cc2)nn2c1NCC1CN(C(=O)n3cncn3)CCC12` (stereo not drawn) [Compound 306, 2-(4-phenoxyphenyl)-7-(1H-1,2,4-triazole-1-carbonyl)-4,5,5a,6,7,8,9,9a-octahydropyrazolo[1,5-a]pyrido[3,4-e]pyrimidine-3-carboxamide], for which the IC50 in assay [1] and in assay [2] was at most 1000 nM each time.
In the case of `CC(C)[C@H](C1CCNc2c(C(N)=O)c(-c3ccc(Oc4ccccc4)cc3)nn21)N(C)C(=O)n1cncn1` (stereo partly drawn) [Compound 242, 7-((R)-2-methyl-1-(N-methyl-1H-1,2,4-triazole-1-carboxamido)propyl)-2-(4-phenoxyphenyl)-4,5,6,7-tetrahydropyrazolo[1,5-a] pyrimidine-3-carboxamide], the IC50 in assay [1] and in assay [2] was over 1000 nM throughout.
`COc1ccc(F)cc1C(=O)NCc1ccc(-c2nn([C@H]3CC[C@@H](N(C)C(=O)n4cncn4)C3)c3ncnc(N)c23)cc1` [Compound 269, N-((1R,3S)-3-(4-amino-3-(4-((5-fluoro-2-methoxybenzamido)methyl)phenyl)-1H-pyrazolo [3,4-d]pyrimidin-1-yl)cyclopentyl)-N-methyl-1H-1,2,4-triazole-1-carboxamide]: the IC50 in assay [1] and in assay [2] was at most 1000 nM throughout.
As to `COc1ccc(F)cc1C(=O)NCc1ccc(-c2nn([C@H]3CCCC[C@H](N(C)C(=O)n4cncn4)C3)c(N)c2C(N)=O)cc1` [Compound 232, N-((1S,3S)-3-(5-amino-4-carbamoyl-3-(4-((5-fluoro-2-methoxybenzamido)methyl)phenyl)-1H-pyrazol-1-yl)cycloheptyl)-N-methyl-1H-1,2,4-triazole-1-carboxamide], the IC50 in assay [1] and in assay [2] was at most 1000 nM in each case.
With `CC1CN(Cc2ccc(C(F)(F)F)cc2N2CCCC2)CCN1C(=O)n1cncn1` (stereo not drawn) [Compound 106, (2-methyl-4-(2-(pyrrolidin-1-yl)-4-(trifluoromethyl)benzyl)piperazin-1-yl)(1H-1,2,4-triazol-1-yl)methanone], the concentration for half-maximal inhibition (IC50) in assay [1] and in assay [2] was over 1000 nM each time.
Take `COc1ccc(F)cc1C(=O)NCc1ccc(-c2nn(CC3CCC(O)CN3C(=O)n3cncn3)c3ncnc(N)c23)cc1` (stereo not drawn) [Compound 246, N-(4-(4-amino-1-((5-hydroxy-1-(1H-1,2,4-triazole-1-carbonyl)piperidin-2-yl)methyl)-1H-pyrazolo[3,4-d]pyrimidin-3-yl)benzyl)-5-fluoro-2-methoxybenzamide]: the half-inhibitory concentration (IC50) in assay [1] and in assay [2] was at most 1000 nM in each case.
On to `COc1ccc(F)cc1C(=O)NCc1ccc(-c2nn([C@H]3CC[C@H](N(C)C(=O)n4cncn4)C3)c3ncnc(N)c23)cc1` [Compound 312, N-((1S,3S)-3-(4-amino-3-(4-((5-fluoro-2-methoxybenzamido)methyl)phenyl)-1H-pyrazolo [3,4-d]pyrimidin-1-yl)cyclopentyl)-N-methyl-1H-1,2,4-triazole-1-carboxamide], for which the IC50 in assay [1] and in assay [2] was at most 1000 nM in each case.
`COc1ccc(F)cc1C(=O)NCc1ccc(-c2nn(C[C@H]3CCC[C@H]3CN(C)C(=O)n3cncn3)c3ncnc(N)c23)cc1` [Compound 307, N-(((1R,2S)-2-((4-amino-3-(4-((5-fluoro-2-methoxybenzamido)methyl)phenyl)-1H-pyrazolo [3,4-d]pyrimidin-1-yl)methyl)cyclopentyl)methyl)-N-methyl-1H-1,2,4-triazole-1-carboxamide]: the IC50 in assay [1] and in assay [2] was at most 1000 nM each time.

A word on the IC50: it is the concentration at which inhibition is half-maximal.
